Data taken from patent publication US20250042882A1, “CERTAIN 3-AZABICYCLO[3.1.0]HEXANES AS GLP-1 RECEPTOR MODULATORS” (AstraZeneca AB, priority 2021, published 2025).

Columns and labels:
human GLP-1R receptor = target: T1, human GLP-1R receptor (Homo sapiens, UniProt P43220, L260F); test: CHOK1 GLP-1R cAMP Assay; assay type: cell-based; conditions: CHO-K1 cell line stably expressing human GLP-1R (Leu260Phe variant); HTRF cAMP; agonist activity
T1 construct: expressed in transfected cells; host or cells: CHO-K1 (ATCC CCL-61)
T1 sequence (P43220 24-463 L260F): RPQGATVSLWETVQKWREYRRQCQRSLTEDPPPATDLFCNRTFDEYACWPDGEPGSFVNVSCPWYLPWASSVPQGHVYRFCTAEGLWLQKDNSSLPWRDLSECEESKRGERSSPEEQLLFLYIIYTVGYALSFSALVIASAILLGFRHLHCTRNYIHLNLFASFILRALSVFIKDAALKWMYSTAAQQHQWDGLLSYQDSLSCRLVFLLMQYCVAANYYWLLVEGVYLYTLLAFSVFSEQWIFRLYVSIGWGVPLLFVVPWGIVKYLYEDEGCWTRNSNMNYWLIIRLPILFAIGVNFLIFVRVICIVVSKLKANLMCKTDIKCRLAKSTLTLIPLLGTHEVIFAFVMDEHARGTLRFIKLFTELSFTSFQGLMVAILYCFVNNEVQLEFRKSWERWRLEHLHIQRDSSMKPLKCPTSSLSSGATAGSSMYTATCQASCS
Method: A cell line stably expressing the human GLP-1R receptor (NM_002062.5, including the naturally-occurring variant Leu260Phe) in a CHO-K1 (ATCC® CCL-61™) was used for assay.
GLP-1 receptor mediated agonist activity was determined in a cell-based assay measuring cyclic adenosine monophosphate (cAMP) levels in cells using Homogeneous Time-Resolved Fluorescence (HTRF) cAMP detection kit (CisBio catalog #62AM4PEC, cAMP Gs Dynamic range kit). The cAMP detection method is based on a competitive immunoassay, in which cAMP produced by the cells and cAMP labeled with the dye d2 compete for binding to a Europium-Cryptate-labeled anti-cAMP antibody. The specific HTRF signal is inversely proportional to the concentration of cAMP.
Compounds were added to individual well in 384 well-assay plates (Greiner #784076) using an Echo (LabCyte) dispenser from 10 mM stocks. Varying concentration of compounds were added to wells, and DMSO was used to normalize each well to a volume of 100 nL. A dose response curve of GLP-1(7-36)NH2 (Bachem H-6795) was included in each run. 5 μL of cAMP concentration response standards are applied in specified wells in the assay plates. Cryo-preserved cells are thawed and resuspended in assay buffer pre-heated to 37° C. (20 mM HEPES pH 7.4, 1× Hank's Balanced Salt Solution (HBSS, Life Technologies #14065) supplemented with 0.1% (w/v) bovine serum albumin (Sigma, A-7030). Cells were centrifuged at 250*g for 5 min at rt, and resuspended in room tempered assay buffer to a final density of 0.16*10^6 cell/mL, to deliver 800 cells/well. 5 μL of assay buffer with 1 mM 3-isobutyl-1-methylxanthin (IBMX; Sigma cat I-7018) was dispensed per well in assay plates using a multidrop combi (Thermo Scientific) subsequently 5 μL of cell suspension was distributed to relevant wells in the assay using a multidrop dispenser. Assay plates were incubated 20 min at rt.
Detection reagents, Europium-Cryptate-labeled anti-cAMP antibody and cAMP labeled with the dye d2, are diluted in lysis buffer, provided by the manufacturer. 5 μL of each detection reagent is supplemented to each assay well using a multidrop dispenser. Assay plates are incubated in the dark for at least one h. The HTRF signal is measured using the HTRF module (excitation: 337 nm, emission A: 665 nm and emission B: 620 nm) in Pherastar FSX (BMG Labtech).
Raw data were converted to pM cAMP using the cAMP standard curve included in each run.
Converted data were further analyzed in Genedata Screener (Genedata) and EC50 determinations were made from agonist dose-response curves analyzed with a curve fitting program using a 4-parameter logistic dose response equation (Equation y=A+((B−A)/1+((C/x)^D))) where A is no stimulation, B is full stimulation, C is the EC50 and D is the Hill slope). The percent effect was determined relative to a saturating concentration of a full GLP-1R agonist (GLP-1(7-36)NH2 has 100% effect in this assay setup).

GLP-1R = target: T2, GLP-1R (Homo sapiens, UniProt P43220); test: EndoC cAMP Accumulation Assay; assay type: cell-based; conditions: EndoC-βH1 human pancreatic β cell line; HTRF cAMP accumulation
T2 construct: host or cells: EndoC-βH1 human pancreatic beta cell line
T2 sequence (P43220 24-463): as the sequence (P43220 24-463 L260F) above, with F237L counted along it
Excerpt: EndoC cAMP Accumulation Assay
A HTRF cAMP assay (cAMP Gs dynamic kit; CisoBio Cat #62AM4PEJ) was used to identify agonists of GLP-1R in a pancreatic insulinoma cell line (EndoC-⊕H1). […] EndoC-PHlcells have detectable GLP-1R messenger ribonucleic acid (mRNA) as detected by quantitative polymerase chain reaction (qPCR). […] The EndoC-PH1 cell line is a valid model of human beta cells and applicable for screenings to identify novel drug target candidates (Mol. Metab., 2018, 8, 144-157). CisBio HTRF cAMP kits are based on a competitive immunoassay using cryptate-labelled anti-cAMP antibody and d2-labeled cAMP. The detection kit is intended for the direct quantitative determination of cAMP. The specific signal (i.e. energy transfer) is inversely proportional to the concentration of cAMP in the standard or sample. Test compounds (10 mM in DMSO) were diluted into assay buffer (HBSS (Sigma #H8264) supplemented with 25 mM HEPES (Gibco #15630, pH 7.4), 0.1% BSA (Sigma #A3059) and 0.5 mM IBMX (Sigma #I7018) included fresh on the day of the assay) into 96 well U-bottom plates (Greiner #650201). Diluted compounds were transferred to ECHO source polypropylene plates (Labcyte #P-05525) and dose response curves were dispensed acoustically using ECHO 550 into black shallow-well u-bottom 384-well HTRF Assay Plates (Corning 4514).
Cryovials of EndoC-H1 (supplied at 1×10e^7 cells/vial) were used directly for screening. The cryovials and were removed from N2(l) and thawed rapidly in a 37° C. water bath. The cells were resuspended in assay buffer and centrifuged at 300 g for 5 min. Cells were resuspended in assay buffer at the appropriate concentration, typically at 12e5 cells per mL (3000 cells per well, dependent on cell batch) and 2.5 μL diluted cells were added to all wells of destination plate by Multidrop combi reagent dispenser (Thermofisher). The plates were incubated at rt for 30 min. The assay was stopped by adding 2.5 μL anti-cAMP cryptate solution to all wells and 2.5 μL cAMP-d2 solution (both diluted 1:20 in lysis buffer) to columns 1-22 by Combi drop. A volume of 2.5 μL cAMP-d2 solution was added to wells E23 to P24 and 2.5 μL lysis buffer added to wells A23 to D24 by multichannel pipette. The plates were incubated at rt for 1 h and read on an Envision plate reader using excitation wavelength of 320 mn and emission of 590 nm and 660 nm.
Raw data from Envision is converted to % DeltaF according to the manufacturer's instructions. Dose response curves are analysed via 4-Parameter Logistical Analysis and assay plate Z′ values obtained. Samples are graphed as percentage (%) activation plots compared to GIP (1-42, Bachem H-5645) with assay window defined by negative control as basal cell cAMP levels and positive control are defined by maximum GIP (82.5 nM) signal. GLP-1 (7-36 amide, Bachem H-6795) dose response curve was included on all plates.

Row | EC50 (human GLP-1R receptor) [nM] | EC50 (GLP-1R) [nM] | Compound
1 | 280 | 350 | COc1cc(C(=O)O)cc2c1nc(CN1C[C@@H]3[C@H](C1)[C@H]3c1cccc3c1O[C@](C)(c1ccc(Cl)cn1)O3)n2CC1CCO1 (single isomer, unassigned) [Example 4a, 2-(((1R,5S,6R)-6-((R*)-2-(5-Chloropyridin-2-yl)-2-methylbenzo[d][1,3]dioxol-4-yl)-3-azabicyclo[3.1.0]hexan-3-yl)methyl)-4-methoxy-1-(((S)-oxetan-2-yl)methyl)-1H-benzo[d]imidazole-6-carboxylic acid]
2 | 61 | 14 | COc1cc(C(=O)O)cc2c1nc(CN1C[C@@H]3[C@H](C1)[C@H]3c1cccc3c1O[C@](C)(c1ccc(Cl)cn1)O3)n2CC1CCO1 (single isomer, unassigned) [Example 4b, 2-(((1R,5S6R)-6-((R*)-2-(5-Chloropyridin-2-yl)-2-methylbenzo[d][1,3]dioxol-4-yl)-3-azabicyclo[3.1.0]hexan-3-yl)methyl)-4-methoxy-1-(((S)-oxetan-2-yl)methyl)-1H-benzo[d]imidazole-6-carboxylic acid]

Continued, compound first:

Row | Compound | EC50 (human GLP-1R receptor) [nM] | EC50 (GLP-1R) [nM]
3 | 2-(((1R,5S,6R)-6-((R*)-2-(5-Chloropyridin-2-yl)-5-fluoro-2-methylbenzo[d][1,3]dioxol-4-yl)-3-azabicyclo[3.1.0]hexan-3-yl)methyl)-4-fluoro-1-(((S)-oxetan-2-yl)methyl)-1H-benzo[d]imidazole-6-carboxylic acid [Example 10b] | 680 | 1900
4 | 4-Chloro-2-(((1R,5S,6R)-6-((R*)-2-(5-chloropyridin-2-yl)-5-fluoro-2-methylbenzo[d][1,3]dioxol-4-yl)-3-azabicyclo[3.1.0]hexan-3-yl)methyl)-1-(((S)-oxetan-2-yl)methyl)-1H-benzo[d]imidazole-6-carboxylic acid [Example 8a] | 150 | 280
5 | 4-Chloro-2-(((1R,5S,6R)-6-((R*)-2-(5-chloropyridin-2-yl)-5-fluoro-2-methylbenzo[d][1,3]dioxol-4-yl)-3-azabicyclo[3.1.0]hexan-3-yl)methyl)-1-(((S)-oxetan-2-yl)methyl)-1H-benzo[d]imidazole-6-carboxylic acid [Example 8b] | 8.2 | 9.6
6 | C[C@@]1(c2ccc(Cl)cn2)Oc2cccc([C@H]3[C@@H]4CN(Cc5nc6c(Cl)cc(C(=O)O)cc6n5CC5CCO5)C[C@@H]43)c2O1 (relative stereo) [Example 5, 4-Chloro-2-(((1R,5S,6R)-6-((R*)-2-(5-chloropyridin-2-yl)-2-methylbenzo[d][1,3]dioxol-4-yl)-3-azabicyclo[3.1.0]hexan-3-yl)methyl)-1-(((S)-oxetan-2-yl)methyl)-1H-benzo[d]imidazole-6-carboxylic acid] | 24 | 16
7 | C[C@@]1(c2ccc(Cl)cn2)Oc2cccc([C@H]3[C@@H]4CN(Cc5nc6c(F)cc(C(=O)O)cc6n5C[C@@H]5CCO5)C[C@@H]43)c2O1 (relative stereo) [Example 9, 2-(((1R,5S,6R)-6-((R*)-2-(5-Chloropyridin-2-yl)-2-methylbenzo[d][1,3]dioxol-4-yl)-3-azabicyclo[3.1.0]hexan-3-yl)methyl)-4-fluoro-1-(((S)-oxetan-2-yl)methyl)-1H-benzo[d]imidazole-6-carboxylic acid] | 40 | 58
8 | C[C@@]1(c2ccc(C#N)cc2F)Oc2cccc([C@H]3[C@@H]4CN(Cc5nc6c(F)cc(C(=O)O)cc6n5C[C@@H]5CCO5)C[C@@H]43)c2O1 (relative stereo) [Example 11, 2-((1R,5S,6R)-6-((R*)-2-(4-Cyano-2-fluorophenyl)-2-methylbenzo[d][1,3]dioxol-4-yl)-3-azabicyclo[3.1.0]hexan-3-yl)methyl)-4-fluoro-1-(((S)-oxetan-2-yl)methyl)-1H-benzo[d]imidazole-6-carboxylic acid] | 61 | 57
9 | CCn1cncc1Cn1c(CN2C[C@@H]3[C@H](C2)[C@H]3c2cccc3c2O[C@](C)(c2ccc(Cl)cn2)O3)nc2c(OC)cc(C(=O)O)cc21 (relative stereo) [Example 13, 2-((1R,5S,6s)-6-(R*)-2-(5-Chloropyridin-2-yl)-2-methylbenzo[d][1,3]dioxol-4-yl)-3-azabicyclo[3.1.0]hexan-3-yl)methyl)-1-((1-ethyl-1H-imidazol-5-yl)methyl)-4-methoxy-1H-benzo[d]imidazole-6-carboxylic acid] | 8.1 | 4.1
10 | CCn1cncc1Cn1c(CN2C[C@@H]3[C@H](C2)[C@H]3c2cccc3c2O[C@](C)(c2ccc(Cl)cn2)O3)nc2c(F)cc(C(=O)O)cc21 (relative stereo) [Example 14, 2-((1R,5S,6s)-6-(R*)-2-(5-Chloropyridin-2-yl)-2-methylbenzo[d][1,3]dioxol-4-yl)-3-azabicyclo[3.1.0]hexan-3-yl)methyl)-1-((1-ethyl-1H-imidazol-5-yl)methyl)-4-fluoro-1H-benzo[d]imidazole-6-carboxylic acid] | 26 | 5.9
11 | CCn1cncc1Cn1c(CN2C[C@@H]3[C@H](C2)[C@H]3c2cccc3c2O[C@](C)(c2ccc(Cl)cc2F)O3)nc2c(F)cc(C(=O)O)cc21 (relative stereo) [Example 15, 2-((1R,5S,6s)-6-((R*)-2-(4-Chloro-2-fluorophenyl)-2-methylbenzo[d][1,3]dioxol-4-yl)-3-azabicyclo[3.1.0]hexan-3-yl)methyl)-1-((1-ethyl-1H-imidazol-5-yl)methyl)-4-fluoro-1H-benzo[d]imidazole-6-carboxylic acid] | 8.6 | 3
